A melting point compilation (Tetko et al.; mined from patent text by program, amines drawn as free bases though some values may be those of a salt)

Row | SMILES | melting point
1 | Nc1nc(Cl)c(N)c(NCCCCO)n1 | 110 to 111 °C
2 | CC1(c2ccc(-c3ccc(F)cc3)cc2)CC(=O)NN1 (centres undefined) | 194 to 196 °C
3 | Cn1ncc(C(=O)N2CCC2)c1C(=O)Nc1ccc2nc(-c3cccnc3)nn2c1 | 272 °C
4 | Cc1ccc(-c2nc(CCl)co2)s1 | 84 to 85 °C
5 | N#CC1=C(C2=CCNCC2)Nc2n[nH]cc2C1c1cccc2nonc12 (centres undefined) | 180 °C
6 | CON=C(C[N+](=O)[O-])NCc1cccnc1 | 77 to 78 °C
7 | O=C(O)C1=C(C(=O)O)Oc2ccccc2O1 | 215 to 218 °C
8 | C1=C(CCc2ccco2)CCN(Cc2c[nH]c3ncccc23)C1 | 105 °C
9 | CC(c1oc2ccccc2c(=O)c1-c1cccc(F)c1)n1nc(-c2ccc3cc(O)ccc3c2)c2c(N)ncnc21 (centres undefined) | 281 to 285 °C
10 | Cc1ccc(O)c(C(C)(O)c2ccccc2)c1 (centres undefined) | 100 °C
11 | Cc1cc(-c2csc(NC(=N)N)n2)c[nH]1 | 235 to 237 °C
12 | CON1CCC2(CC1)NC(=O)C(F)(c1cc(C)ccc1C)C2=O (centres undefined) | 127 to 130 °C
13 | O=C1CCC(c2ccc(N3CC(CO)OC3=O)cc2)CC1 (racemic) | 152 °C
14 | COc1ccc2c(c1)c(C1CCN(Cc3cccc(C(=O)O)c3)CC1)cn2CCc1ccsc1 | 217 to 218 °C
15 | Cc1noc2cc3c(cc12)C1(CO3)C(=O)N(Cc2ccc(-c3ccno3)cc2)c2ccccc21 (centres undefined) | 192 to 194 °C
16 | CC1(C)CON(Cc2ccc(NC(=O)C3=C(C(=O)O)CCCC3)cc2Br)C1=O | 149 to 151 °C
17 | Cc1cc2c(s1)Oc1cccc(C)c1N=C2N1CCN(C)CC1 | 114 to 117 °C
18 | O=C(O)CN1CCC(n2nc(-c3c(-c4ccccc4)nn4ccccc34)ccc2=O)C1=O (centres undefined) | 250 to 251 °C
19 | CN(C)c1ccc(-c2cnc3[nH]cc(C(=O)C4(C)CCCCC4)c3n2)cc1 | 272 to 274 °C
20 | CCc1nc2c(N)nc3cc(CCC(=O)N4CCOCC4)ccc3c2n1CC(C)(C)O | 237 to 239 °C
21 | CCOC(=O)c1c(C(F)F)nn(C)c1Cl | 37 to 39 °C
22 | COc1cc(N)c([N+](=O)[O-])cc1I | 189 °C
23 | CCOC(=O)c1ncc2[nH]c3ccc(C4CCCC(=O)C4)cc3c2c1C (centres undefined) | 182 to 189 °C
24 | CN(C)c1ccc(C2CC3(C)C(O)CC(O)C3C3CCC4CC5(CCC4=C23)OCCO5)cc1 (centres undefined) | 107 to 109 °C
25 | COc1ccc(-c2csc(N)n2)cc1OC1CC2CCC1C2 (centres undefined) | 168 to 178 °C
26 | Cc1ccc(S(=O)(=O)OCC2COc3cccc4[nH]c(=O)n2c34)cc1 (centres undefined) | 140 to 142 °C

Row | SMILES | melting point
27 | O=S1(=O)NCN(CCF)c2ccc(I)cc21 | 156 to 158 °C
28 | COc1ccc(C(=O)c2cn3c4c(cccc24)OCC3CN2CCOCC2)cc1 (centres undefined) | 209 to 214 °C
29 | CC1CCC(Nc2ccc(Br)cc2)c2ncc(C(=O)O)c(=O)n21 (single isomer, unassigned; (-)) | 210 to 211 °C
30 | COc1ccc(C2CC(O)(c3ccc(OC4CCCCO4)cc3)C2)cc1 (centres undefined) | 72 to 75 °C
31 | CCOC(=O)C(O)(Cn1cncn1)c1ccc(F)cc1 (centres undefined) | 142 to 144 °C
32 | COC(=O)C[C@@H]1CCC/C1=C\Cc1c(O)c2c(c(C)c1OC)COC2=O | 72 to 74 °C
33 | Cc1ccc(C(=O)Nc2ccc(C(=O)CCC(=O)O)cc2)cc1 | 257 to 258 °C
34 | Cn1cc(-c2ccccc2)c(=O)c(-c2c(Cl)cccc2Cl)c1 | 223 to 226 °C
35 | Cc1nc(S(=O)(=O)Cc2ccc(Cl)cc2)nc2c1CCCC2 | 151 °C
36 | CC(C)c1n[nH]c(Cl)c1C=NC(C#N)=C(N)C#N | 145 to 150 °C
37 | CNC(=NCCSCc1cc(CN2CCCCC2)ccn1)NC#N | 79 to 81 °C
38 | OCc1nnc2n1-c1ccccc1C(c1ccccc1Cl)=NC2 | 196 to 197 °C
39 | CC(C)CCCC(C)C1CCC2=C3C(=O)CC4C(C)(C)C(OC(=O)c5ccccc5)CCC4(C)C3CCC21C (centres undefined) | 189 to 190 °C
40 | CNC(=O)N1CC(Oc2ccc(Br)cc2)C1 | 135 to 137 °C
41 | O=C(Oc1ccccc1)c1ccccc1S | 135 °C
42 | COC(=O)C1COc2ccc(S)cc2C1 (centres undefined) | 83 to 84 °C
43 | N#Cc1cnc(N)cc1N | 197 to 198 °C
44 | Cn1nnnc1CC(=O)c1ccc(Br)cc1N | 159 to 160 °C
45 | OC(Cn1cncn1)(Cn1ncnc1S)c1ccc(F)cc1F (centres undefined) | 187 °C
46 | O=S1c2ccccc2N(CCCCl)c2ccccc21 | 171 to 173 °C
47 | COC(=O)C1(CCCCCCCCCCCCC2(C(=O)NC3CC3)CC2)CC1 | 50.6 to 53 °C
48 | CC(=O)OC1CCC2C3CCc4cc(O)c(C=O)cc4C3CCC12C (centres undefined) | 184 °C
49 | Nc1ccnn1-c1c(F)c(F)c(C(F)(F)F)c(F)c1F | 103 to 104 °C
50 | CS(=O)c1ccc(-c2coc3ccc(-c4nnc(O)o4)cc23)cc1 (centres undefined) | 234 to 237 °C
51 | NS(=O)(=O)c1ccc(N2CC(=O)N(c3ccccc3)C2=O)cc1 | 255 to 257 °C
52 | CN(CCCN1c2ccccc2CCc2ccccc21)c1ncccc1C(=O)O | 133 to 135 °C

Second part, the molecule after the results:

Row | melting point | SMILES
53 | 214 to 216 °C | O=C(O)Cn1c(Cc2ccccc2)ccc(NC(=O)CCc2ccccc2)c1=O
54 | 90 °C | CC(=O)OCCCN(C)CCCN(C)C(=O)[C@@H]1CCCN1S(=O)(=O)c1ccc(Cl)c(COc2cccc3c(-n4ccnc4)cc(C)nc23)c1Cl
55 | 140 to 141 °C | COc1ccc(-c2nc(C(F)(F)F)cn2-c2ccc(Br)cc2)cc1
56 | 152 to 154 °C | COc1cccc(C(=O)Nc2ccc(C(C)=O)cc2)c1
57 | 137 to 138 °C | COc1cc(COc2nn(-c3ccccc3)cc2/C=C/c2cnco2)ccc1OCc1nc(-c2ccco2)oc1C
58 | 169 to 171 °C | CCCCc1ncc(/C=C(\Cc2cccs2)C(=O)O)n1CCc1ccc(CC(=O)O)cc1
59 | 160 to 162 °C | NC(=O)NN=Cc1ccc(Oc2cccnc2)cc1
60 | 230 to 232 °C | Cc1c(Cc2cccnc2)sc2ccc(C(=O)O)cc12
61 | 158 to 159 °C | C[C@H]([C@](O)(Cn1cncn1)c1ccc(F)cc1F)S(=O)(=O)N1CCN(c2ccc(C(F)(F)F)cc2)CC1
62 | > 300 °C | CC(=O)Nc1ccc2c3c1c(=O)c(C(=O)O)cn3CCC2
63 | 196 to 199 °C | O=C(Nc1ccc(C(F)(F)F)cc1)N1CC2CCc3cc(Cl)ccc3C2=N1 (centres undefined)
64 | 182 °C | COc1ccc(N(C(=O)CNC(=O)Nc2cccc(C)c2)c2ccccc2)cc1
65 | 170 to 172 °C | O=C1c2ccccc2-c2c1c1ccccc1c(=O)n2CCCCCCCCCCCNS(=O)(=O)c1ccccc1
66 | 54 °C | CN(C)[C@@H]1CN2C(=O)N(c3cc(Cl)cc(Cl)c3)C(=O)[C@@]2(Cc2ccc(Br)cc2)C1
67 | 140 °C | CC(OCc1cc2nc(C(F)(F)F)ccc2n1S(=O)(=O)c1ccccc1)C(=O)O (centres undefined)
68 | 123 to 124 °C | C=C1CC(C)(COc2ccc3ccc(=O)oc3c2)OC1=O (centres undefined)
69 | 131 °C | CNC(=O)[C@@H]1CCCN1S(=O)(=O)c1ccc(Cl)c(COc2cccc3c2NC(C)(C)C=C3n2cncn2)c1Cl
70 | 197 to 198 °C | CC(=O)Nc1ccccc1C1OC(=O)NC1=O (centres undefined)
71 | 232 to 237 °C | Cc1cc2cc(CN3CCCC3)cnc2cc1NC(=O)c1ccc(-c2ccc(Cl)cc2)nc1
72 | 126 to 128 °C | Cc1ccc(-c2cc(C(F)(F)F)nn2-c2ccc(S(N)(=O)=O)c(F)c2)cc1
73 | 162 to 163 °C | COc1ccc(CN2CCc3cc(O)c(OC)cc3C2)cc1
74 | 148 to 149 °C | Cc1ncnc(-c2ccc(Oc3ccc([N+](=O)[O-])cc3)cc2)n1
75 | 204 to 206 °C | CC(C)CC(NC(=O)c1cc(O)c2c(c1)C(=O)c1cccc(O)c1C2=O)C(=O)O (centres undefined)
76 | 270 to 274 °C | O=C(Nc1ccc2cc(CN3CCCC3)ccc2c1)c1ccc(-c2ccc(Cl)cc2)nc1

Row | melting point | SMILES
77 | 72 to 73 °C | C=C(CC1(C)C(=O)c2ccc(Cl)cc2C1=O)c1cccc(Cl)n1 (centres undefined)
78 | 75.5 to 76.5 °C | COC(=O)c1ccccc1OS(=O)(=O)N(C)C
79 | 135 to 137 °C | C/C(=C\c1ccc(C(C)(C)C)cc1)CNc1cccc(-c2ccnc3c(C(=O)c4cccs4)cnn23)c1
80 | 85 to 85.8 °C | CC(=O)NC(C)COc1c(C)cccc1C (centres undefined)
81 | 107 to 109 °C | COCCCS(=O)(=O)NC(=O)CC(C)c1ccc(OCCOC)cc1Oc1ncc(C(F)(F)F)cc1Cl (centres undefined)
82 | 92 to 93 °C | CC1(C)CC(=O)c2cc(OCC(F)(F)F)c(OCC(F)(F)F)cc2O1
83 | 263 to 265 °C | Cn1c(C(F)(F)F)ccc(-c2cc3[nH]c(=O)oc3cc2Cl)c1=O
84 | 118 °C | CCCCc1nc(SC)c(C(=O)OCC)n1Cc1cccc(-c2ccccc2S(=O)(=O)NC#N)c1
85 | 67 to 69 °C | Cc1nc(CCOCCCCCCNCC(O)c2cc(Cl)c(N)c(Cl)c2)cs1 (centres undefined)
86 | 101 to 102 °C | CC(=O)Oc1cnc2c(OC(C)=O)cccc2c1
87 | 236 to 239 °C | COc1ccc2[nH]cc(/C=C/C(=O)c3ccncc3)c2c1
88 | 90 to 95 °C | COc1cc(OCc2cccnc2)ccc1/C=C/c1cc(/C=C/c2ccc3cc[nH]c3c2)n[nH]1
89 | 282 to 286 °C | CCCCCCNC1=NS(=O)(=O)c2cc(Cl)c(Cl)cc2N1
90 | 162 to 163 °C | O=C(Oc1cccc(C(F)(F)F)c1)c1cc2cc(CCl)ccc2oc1=O
91 | 135 to 141 °C | CCCc1nc2c(N)nc3cc(-c4ccccc4)ccc3c2n1CC(C)(C)NS(C)(=O)=O
92 | > 300 °C | O=C(Nc1ccc2nc3[nH]c(=O)[nH]c3cc2c1)c1ccccc1
93 | 215 to 218 °C | O=C1NC(Cc2ccc(OCc3ccccc3)cn2)C(=O)NC1Cc1ccccc1 (centres undefined)
94 | 189 to 191 °C | CCCCCCCNC(=O)Nc1ccc(OC)cc1C(=O)NCC1CCN(C(c2ccccc2)c2ccccc2)CC1
95 | 183 to 184 °C | CCOC(=O)COc1cc(-c2cc3nccnc3[nH]2)ccc1OC
96 | 95 to 96 °C | CCN(CC)CCOc1ccc2cc3ccc(OCCN(CC)CC)c(CO)c3nc2c1CO
97 | 160 °C | CC(=O)Nc1ccc(OCc2nc3ccccc3o2)cc1C
98 | 97 to 105 °C | COC(=O)C1=C(C)NC(C)=C(C(=O)OCCN2CCN(S(=O)(=O)c3ccc(Cl)cc3)CC2)C1c1cccc([N+](=O)[O-])c1 (centres undefined)
99 | 140 to 141 °C | Cc1ccc(-c2c(NS(=O)(=O)c3ccc(C(C)(C)C)cc3)ncnc2OCCOc2ccc(NC(=O)C(C)(C)C)cn2)cc1
